Experimental data from BindingDB's records for PubMed 9864265 (Second Tokushima Institute of New Drug Research, 1998).

How the values were obtained:
[1] = target: T1, Vasopressin V1b receptor (Homo sapiens, UniProt P47901)
T1 sequence (P47901 whole entry): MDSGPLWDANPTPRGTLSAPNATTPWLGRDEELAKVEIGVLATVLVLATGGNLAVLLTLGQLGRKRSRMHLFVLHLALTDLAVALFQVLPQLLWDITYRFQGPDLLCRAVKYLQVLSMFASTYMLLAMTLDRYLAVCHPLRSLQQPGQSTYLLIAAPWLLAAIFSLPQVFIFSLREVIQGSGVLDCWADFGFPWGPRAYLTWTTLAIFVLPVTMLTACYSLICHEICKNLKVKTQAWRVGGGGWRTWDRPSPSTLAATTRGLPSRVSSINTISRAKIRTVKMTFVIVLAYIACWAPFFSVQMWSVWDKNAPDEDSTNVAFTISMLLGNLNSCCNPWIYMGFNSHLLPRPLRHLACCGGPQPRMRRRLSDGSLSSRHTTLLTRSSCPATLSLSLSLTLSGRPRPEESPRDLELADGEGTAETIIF

[2] = target: Vasopressin V1a receptor (Rattus norvegicus, UniProt P30560)
[3] = target: Vasopressin V2 receptor (Rattus norvegicus, UniProt Q00788)
Chain of Vasopressin V2 receptor (Q00788 whole entry): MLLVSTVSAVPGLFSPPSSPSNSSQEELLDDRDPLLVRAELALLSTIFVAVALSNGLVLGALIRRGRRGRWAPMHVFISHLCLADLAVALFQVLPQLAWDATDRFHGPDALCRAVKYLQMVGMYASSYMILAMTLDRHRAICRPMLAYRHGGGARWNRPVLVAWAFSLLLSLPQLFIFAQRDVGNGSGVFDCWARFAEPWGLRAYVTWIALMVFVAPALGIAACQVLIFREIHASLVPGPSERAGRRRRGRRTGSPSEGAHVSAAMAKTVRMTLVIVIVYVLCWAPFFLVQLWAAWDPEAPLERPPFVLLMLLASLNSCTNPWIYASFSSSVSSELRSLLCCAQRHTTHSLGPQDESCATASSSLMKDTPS

Chain of Vasopressin V1a receptor (P30560 whole entry): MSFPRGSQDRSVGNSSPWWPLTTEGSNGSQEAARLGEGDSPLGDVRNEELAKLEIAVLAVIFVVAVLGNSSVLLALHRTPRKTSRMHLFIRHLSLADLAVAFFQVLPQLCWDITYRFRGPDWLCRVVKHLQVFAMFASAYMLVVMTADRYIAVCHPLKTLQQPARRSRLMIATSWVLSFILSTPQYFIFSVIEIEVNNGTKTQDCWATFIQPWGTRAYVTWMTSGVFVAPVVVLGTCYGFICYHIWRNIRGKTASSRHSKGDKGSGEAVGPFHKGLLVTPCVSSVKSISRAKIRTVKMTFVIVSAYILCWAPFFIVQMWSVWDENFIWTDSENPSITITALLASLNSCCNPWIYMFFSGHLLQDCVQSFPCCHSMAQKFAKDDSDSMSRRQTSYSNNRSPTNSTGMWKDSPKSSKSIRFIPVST

SMILES | Ki [1] | Ki [2] | Ki [3]
Cc1ccccc1C(=O)Nc1ccc(C(=O)N2CCCC(O)c3cc(Cl)ccc32)c(C)c1 (stereo not given) | > 10 µM | 0.325 µM | 0.00133 µM
Cc1ccccc1C(=O)Nc1ccc(C(=O)N2CCCC(N(C)C)c3ccccc32)cc1 (stereo not given) | > 10 µM | 0.524 µM | 
